Calls of active or inactive are those of the source. The rule behind the calls is not given here.
What was measured:
HepG2 = assay: Antiproliferative activity against human HepG2 cells after 24 hrs by MTT assay; assay type: functional, cell-based; details: HepG2, 24 h
HeLa [1] = assay: Cell cycle arrest in human HeLa cells assessed as accumulation of cells at G2/M phase at 2 uM after 24 hrs by propidium iodide staining-based FACScan flow cytometric analysis (reference value: 16.82%); assay type: functional
HeLa [2] = assay: Cell cycle arrest in human HeLa cells assessed as accumulation of cells at G2/M phase at 4 uM after 24 hrs by propidium iodide staining-based FACScan flow cytometric analysis (reference value: 16.82%); assay type: functional
HeLa [3] = assay: Cell cycle arrest in human HeLa cells assessed as accumulation of cells at G1 phase at 8 uM after 24 hrs by propidium iodide staining-based FACScan flow cytometric analysis (reference value: 62.92%); assay type: functional
HeLa [4] = assay: Cell cycle arrest in human HeLa cells assessed as accumulation of cells at G2/M phase at 8 uM after 24 hrs by propidium iodide staining-based FACScan flow cytometric analysis (reference value: 16.82%); assay type: functional
HeLa [5] = assay: Inhibition of microtubule polymerization in human HeLa cells at 4 uM after 24 hrs by rhodamine/DAPI staining-based confocal microscopic analysis; assay type: cell-based
[6] = target: [Pyruvate dehydrogenase (acetyl-transferring)] kinase isozyme 1, mitochondrial (Homo sapiens) (UniProt Q15118); assay: Inhibition of PDK1 in human HeLa cells assessed as increase in PDH activity at 1 to 1.5 uM by microplate assay; assay type: cell-based
[7] = target: [Pyruvate dehydrogenase (acetyl-transferring)] kinase isozyme 1, mitochondrial (Homo sapiens) (UniProt Q15118); assay: Inhibition of PDK1 in human HeLa cells assessed as increase in PDH-E1 alpha expression up to 8 uM by Western blot analysis; assay type: cell-based
[8] = target: [Pyruvate dehydrogenase (acetyl-transferring)] kinase isozyme 1, mitochondrial (Homo sapiens) (UniProt Q15118); assay: Inhibition of PDK1 in human HeLa cells assessed as decrease in PDH-E1 alpha p-ser232 expression up to 8 uM by Western blot analysis; assay type: cell-based
[9] = target: [Pyruvate dehydrogenase (acetyl-transferring)] kinase isozyme 1, mitochondrial (Homo sapiens) (UniProt Q15118); assay: Inhibition of PDK1 in human HeLa cells assessed as decrease in PDH-E1 alpha p-ser293 expression up to 8 uM by Western blot analysis; assay type: cell-based
Mus musculus = assay: Inhibition of PDK1 in mouse xenografted with human HeLa cells assessed as upregulation of PDH-E1 alpha expression in tumor tissue at 1 to 2 mg/kg, ip administered once in every 2 days for 15 days by immunohistochemistry; assay type: functional, organism-based
HeLa [10] = assay: Induction of apoptosis in human HeLa cells assessed as late apoptotic cells at 1 uM after 24 hrs by Annexin V-APC/propidium iodide staining-based FACScan flow cytometric analysis (reference value: 7.22%); assay type: functional
HeLa [11] = assay: Induction of apoptosis in human HeLa cells assessed as necrotic cells at 1 uM after 24 hrs by Annexin V-APC/propidium iodide staining-based FACScan flow cytometric analysis (reference value: 1.18%); assay type: functional
HeLa [12] = assay: Induction of apoptosis in human HeLa cells assessed as late apoptotic cells at 2 uM after 24 hrs by Annexin V-APC/propidium iodide staining-based FACScan flow cytometric analysis (reference value: 7.22%); assay type: functional
HeLa [13] = assay: Induction of apoptosis in human HeLa cells assessed as early apoptotic cells at 4 uM after 24 hrs by Annexin V-APC/propidium iodide staining-based FACScan flow cytometric analysis (reference value: 6.46%); assay type: functional
HeLa [14] = assay: Induction of apoptosis in human HeLa cells assessed as necrotic cells at 4 uM after 24 hrs by Annexin V-APC/propidium iodide staining-based FACScan flow cytometric analysis (reference value: 1.18%); assay type: functional
HeLa [15] = assay: Induction of apoptosis in human HeLa cells assessed as viable cells at 6 uM after 12 hrs by Annexin V-APC/propidium iodide staining-based FACScan flow cytometric analysis (reference value: 93%); assay type: functional; details: read-out: Activity
HeLa [16] = assay: Induction of apoptosis in human HeLa cells assessed as early apoptotic cells at 6 uM after 12 hrs by Annexin V-APC/propidium iodide staining-based FACScan flow cytometric analysis (reference value: 2.45%); assay type: functional
HeLa [17] = assay: Induction of apoptosis in human HeLa cells assessed as necrotic cells at 6 uM after 12 hrs by Annexin V-APC/propidium iodide staining-based FACScan flow cytometric analysis (reference value: 0.725%); assay type: functional
HeLa [18] = assay: Induction of apoptosis in human HeLa cells assessed as viable cells at 6 uM after 24 hrs by Annexin V-APC/propidium iodide staining-based FACScan flow cytometric analysis (reference value: 93%); assay type: functional; details: read-out: Activity
HeLa [19] = assay: Induction of apoptosis in human HeLa cells assessed as viable cells at 6 uM after 36 hrs by Annexin V-APC/propidium iodide staining-based FACScan flow cytometric analysis (reference value: 93%); assay type: functional; details: read-out: Activity
HeLa [20] = assay: Induction of apoptosis in human HeLa cells assessed as necrotic cells at 6 uM after 36 hrs by Annexin V-APC/propidium iodide staining-based FACScan flow cytometric analysis (reference value: 0.725%); assay type: functional
HeLa [21] = assay: Induction of apoptosis in human HeLa cells assessed as increase in cleaved PARP expression up to 8 uM after 24 hrs by Western blot analysis; assay type: functional, cell-based
HeLa [22] = assay: Induction of mitochondrial membrane potential loss in human HeLa cells assessed as increase in green fluorescence at 2 to 4 uM by JC-1 staining-based fluorescence microscopic analysis; assay type: functional, cell-based
HeLa [23] = assay: Induction of mitochondrial membrane potential loss in human HeLa cells assessed as cells with low membrane potential at 2 uM after 12 hrs by JC-1 staining-based flow cytometric analysis (reference value: 9.31%); assay type: functional
HeLa [24] = assay: Antitumor activity against human HeLa cells xenografted in nude mouse assessed as reduction in tumor size at 1 mg/kg, ip administered once in every 2 days for 15 days relative to control; assay type: functional, organism-based
HeLa [25] = assay: Antitumor activity against human HeLa cells xenografted in nude mouse assessed as increase in mouse survival at 2 mg/kg, ip administered once in every 2 days for 15 days relative to control; assay type: functional, organism-based
HeLa [26] = assay: Induction of apoptosis in human HeLa cells assessed as late apoptotic cells by measuring FL3-H+ cells at 0.7 uM after 24 hrs by propidium iodide staining-based FACScan flow cytometric analysis (reference value: 2.14%); assay type: functional
HeLa [27] = assay: Induction of apoptosis in human HeLa cells assessed as late apoptotic cells by measuring FL3-H+ cells at 2.8 uM after 24 hrs by propidium iodide staining-based FACScan flow cytometric analysis (reference value: 2.14%); assay type: functional
HeLa [28] = assay: Induction of apoptosis in human HeLa cells assessed as late apoptotic cells by measuring FL3-H+ cells at 6 uM after 12 hrs by propidium iodide staining-based FACScan flow cytometric analysis (reference value: 2.13%); assay type: functional
HeLa [29] = assay: Induction of apoptosis in human HeLa cells assessed as late apoptotic cells by measuring FL3-H+ cells at 6 uM after 24 hrs by propidium iodide staining-based FACScan flow cytometric analysis (reference value: 2.13%); assay type: functional
HeLa [30] = assay: Induction of apoptosis in human HeLa cells assessed as late apoptotic cells by measuring FL3-H+ cells at 6 uM after 36 hrs by propidium iodide staining-based FACScan flow cytometric analysis (reference value: 2.13%); assay type: functional
[31] = target: [Pyruvate dehydrogenase (acetyl-transferring)] kinase isozyme 1, mitochondrial (Homo sapiens) (UniProt Q15118); assay: Inhibition of PDK1 in human HeLa cells assessed as increase in PDH-E1 alpha expression at 6 uM by Western blot analysis; assay type: cell-based
Homo sapiens = species: Homo sapiens; assay: Inhibition of microtubule polymerization (unknown origin) at 4 uM after 24 hrs by immunoblot

**Q.** `CC(C)=CC[C@@H](OC(=O)CCCC[C@@H]1CCSC(c2ccccc2)S1)C1=CC(=O)c2c(O)ccc(O)c2C1=O` (some centres undefined) was tested. Which IC50 (HepG2) did it give?
**A.** The IC50 was 5.37 µM.

**Q.** And the Activity (HeLa [1])?
**A.** The Activity was 32.67%.

**Q.** And the Activity (HeLa [2])?
**A.** The Activity was 45.2%.

**Q.** What about the Activity (HeLa [3]) of the same compound?
**A.** The Activity was 15.42%.

**Q.** What about the Activity (HeLa [4]) of the same compound?
**A.** Its Activity is 52.44%.

**Q.** What about the inhibition (HeLa [5]) of the same compound?
**A.** The inhibition was “Active”.

**Q.** What about the inhibition [6] of the same compound?
**A.** The inhibition was “Active”.

**Q.** What about the inhibition [7] of the same compound?
**A.** The inhibition was “Active”.

**Q.** And the inhibition [8]?
**A.** The inhibition was “Active”.

**Q.** What about the inhibition [9] of the same compound?
**A.** The inhibition was “inactive”.

**Q.** What about the Activity (Mus musculus) of the same compound?
**A.** The Activity was “Active”.

**Q.** And the Activity (HeLa [10])?
**A.** The Activity was 42.7%.

**Q.** What about the Activity (HeLa [11]) of the same compound?
**A.** The Activity was 4.46%.

**Q.** And the Activity (HeLa [12])?
**A.** The Activity was 48.9%.

**Q.** What about the Activity (HeLa [13]) of the same compound?
**A.** The Activity was 6.67%.

**Q.** What about the Activity (HeLa [14]) of the same compound?
**A.** The Activity was 16.9%.

**Q.** And the viability at 6 µM (HeLa [15])?
**A.** The viability at 6 µM was 48.8%.

**Q.** And the Activity (HeLa [16])?
**A.** The Activity was 19%.

**Q.** And the Activity (HeLa [17])?
**A.** The Activity was 2.31%.

**Q.** And the viability at 6 µM (HeLa [18])?
**A.** The viability at 6 µM was 29.1%.

**Q.** What about the viability at 6 µM (HeLa [19]) of the same compound?
**A.** The viability at 6 µM was 26.4%.

**Q.** And the Activity (HeLa [20])?
**A.** Its Activity is 5.03%.

**Q.** What about the Activity (HeLa [21]) of the same compound?
**A.** The Activity was “Active”.

**Q.** And the Activity (HeLa [22])?
**A.** The Activity was “Active”.

**Q.** And the Activity (HeLa [23])?
**A.** Its Activity is 53%.

**Q.** And the Activity (HeLa [24])?
**A.** The Activity was “Active”.

**Q.** What about the Activity (HeLa [25]) of the same compound?
**A.** The Activity was “Active”.

**Q.** What about the Activity (HeLa [26]) of the same compound?
**A.** Its Activity is 6.4%.

**Q.** And the Activity (HeLa [27])?
**A.** The Activity was 37.5%.

**Q.** And the Activity (HeLa [28])?
**A.** Its Activity is 10%.

**Q.** What about the Activity (HeLa [29]) of the same compound?
**A.** Its Activity is 43.5%.

**Q.** What about the Activity (HeLa [30]) of the same compound?
**A.** The Activity was 55.2%.

**Q.** And the inhibition [31]?
**A.** The inhibition was “Active”.

**Q.** What about the inhibition (Homo sapiens) of the same compound?
**A.** The inhibition was “Active”.

Reference: ChEMBL document CHEMBL4251606, “Design and characterization of α-lipoic acyl shikonin ester twin drugs as tubulin and PDK1 dual inhibitors” (Eur J Med Chem, 2018)
